The species entered for one data set is Rattus norvegicus. The data set is described as follows: Blockade of neuromuscular transmission activity in albino Sprague-Dawley rat hemidiaphragm assessed as inhibition of electrically-stimulated phrenic nerve contraction at 1 to 30 X 10^-6 M. Format: functional, tissue-based. The note with it: Diaphragm.
In data set [1] the test system is Canis familiaris. The experiment in a line: Cardiovascular effect in anesthetized normotensive iv dosed dog assessed as decrease in heart rate. Format: functional, Canis lupus familiaris.
The test system of data set [2] is Canis familiaris. The experiment in a line: Cardiovascular effect in anesthetized normotensive iv dosed dog assessed as decrease in mean arterial pressure. It is filed as functional, organism-based. The note with it: Canis lupus familiaris; Artery.
Data set [3] relates to Canis familiaris. The data set is described as follows: Toxicity in iv dosed dog assessed as inhibition of respiration. The note with it: in vivo. Format: organism-based, Canis lupus familiaris.
A short description of data set [4]: Antagonist activity at alpha adrenergic receptor in rabbit aortic strips assessed as decrease in of phenylephrine-induced contraction at 3 X 10^-4 M. Format: functional, Oryctolagus cuniculus. More on the design: scale not given: the % may be the effect or the level left.
The nature of data set [5]: Antagonist activity at alpha adrenergic receptor in rabbit aortic strips assessed as inhibition of phenylephrine-induced contraction. It is filed as functional, Oryctolagus cuniculus.
Data set [6] deals with Canis familiaris. The experiment in a line: Cardiovascular effect in anesthetized normotensive dog assessed as decrease in mean arterial pressure at 2 mg/kg, iv upto 22 mins. It is filed as functional, Canis lupus familiaris, Artery.
The species entered for a further data set is Oryctolagus cuniculus. The experiment in a line: Antagonist activity at alpha adrenergic receptor in rabbit aortic strips assessed as decrease in of phenylephrine-induced contraction at 10^-4 M. Format: functional.
For data set [7], the system named is Canis familiaris. The experiment in a line: Cardiovascular effect in anesthetized normotensive dog assessed as reduction in mean arterial pressure at 2 mg/kg, iv dosed twice with second dose being administered 2.5 hrs interval after the first dose. Format: functional, Canis lupus familiaris, Artery.
The subject of data set [8] is Canis familiaris. The data set is described as follows: Toxicity in dog at 0.5 to 4 mg/kg, iv. Also noted: dose 0.5-4 mg/kg, route intravenous. The note with it: in vivo. Format: organism-based, Canis lupus familiaris.
Data set [9] in a line: Blockade of neuromuscular transmission activity in albino Sprague-Dawley rat hemidiaphragm assessed as inhibition of electrically-stimulated phrenic nerve contraction. Format: functional, tissue-based, Diaphragm.
The test system of data set [10] is Canis familiaris. The experiment in a line: Cardiovascular effect in anesthetized normotensive dog assessed as decrease in mean arterial pressure at 0.1 to 0.4 mg/kg, iv. It is filed as functional, organism-based. The note with it: Canis lupus familiaris, Artery.
Data set [11] is described as follows: Blockade of neuromuscular transmission activity in albino Sprague-Dawley rat hemidiaphragm assessed as inhibition of electrically-stimulated phrenic nerve contraction at 10^-5 M relative to control. Format: functional, Diaphragm. More on the design: scale not given: the % may be the effect or the level left.
Data set [12] in a line: Blockade of neuromuscular transmission activity in albino Sprague-Dawley rat hemidiaphragm assessed as inhibition of electrically-stimulated phrenic nerve contraction at 10^-5 M relative to control in presence of Eserine. Format: functional, Diaphragm. Also noted: scale not given: the % may be the effect or the level left.
A short description of data set [13]: Protection of albino Sprague-Dawley rat hemidiaphragm from alpha-bungarotoxin blockade assessed as recovery of nerve-stimulated muscle contraction at 3 X 10^-5 M. It is filed as functional, Muscle tissue.
The test system of data set [14] is Canis familiaris. The experiment in a line: Toxicity in dog at > 0.4 mg/kg, iv. It is filed as organism-based, Canis lupus familiaris. Also noted: dose 0.4 mg/kg, route intravenous. The note with it: in vivo.
Data set [15] relates to Canis familiaris. The data set is described as follows: Toxicity in dog assessed as inhibition of respiration at > 0.4 mg/kg, iv. Format: organism-based, Canis lupus familiaris. Also noted: dose 0.4 mg/kg, route intravenous. The note with it: in vivo.
The subject of data set [16] is Canis familiaris. The experiment in a line: Cardiovascular effect in anesthetized normotensive dog assessed as rise in heart rate at 0.1 mg/kg, iv. Format: functional, Canis lupus familiaris.
The subject of data set [17] is Canis familiaris. The data set is described as follows: Cardiovascular effect in anesthetized normotensive dog assessed as fall in heart rate at 0.1 to 0.4 mg/kg, iv. It is filed as functional, Canis lupus familiaris. The note with it: dose mg/kg 0.1-0.4.

The source made the active and inactive calls. No cut-off for these calls is given here.

For orientation: pKb means −log10 of the Kb, conventionally taken in molar units. `COc1cc2c3cc1Oc1c(O)c(OC)cc4c1[C@@H](Cc1ccc(O)c(c1)Oc1ccc(cc1)C[C@@H]3N(C)CC2)N(C)CC4` [OBAMEGINE]: the result in the data set listed under Rattus norvegicus was inactive. For the same compound, the Activity in the data set on Canis familiaris [1] is 20 bpm; with Canis familiaris [2], “Dose-dependent effect”; with Canis familiaris [3], “Non-toxic”; in [4] it was 30%; in the data set with Canis familiaris [6], 61 mmHg; with Canis familiaris [7], 11 mmHg. Also, the Activity entry with Canis familiaris [8] was “Non-toxic”. For the same compound, the pKb in [5] is given as 5.3. For the same compound, in the data set filed under Oryctolagus cuniculus, the outcome was Active.

A word on the IC50: it is the concentration needed to halve the response being measured. As to `COc1cc2c3cc1Oc1cc(ccc1O)C[C@@H]1c4c(cc(OC)c(O)c4Oc4ccc(cc4)C[C@@H]3N(C)CC2)CC[N+]1(C)C`, the IC50 in data set [9] was 1.42 µM.

Turning to `COc1ccc(C[C@H]2c3cc(OC)c(OC)c(OC)c3CC[N+]2(C)C)cc1Oc1ccc(C[C@H]2c3cc(OC)c4c(c3CCN2C)OCO4)cc1.[Cl-]` [THALISTYLINE], in data set [9], the IC50 amounted to 4.98 µM. Also, in the data set on Canis familiaris [10], the outcome was Active. Further, the Activity in [11] is on record as 24.7%; in data set [12], 63.8%; in data set [13] it was 65.8%; in the data set with Canis familiaris [14], “Toxic”; in the data set on Canis familiaris [15], “Toxic”; with Canis familiaris [16], 20 bpm. In addition, the Activity in the data set on Canis familiaris [17] is reported as 20 bpm. For the same compound, the Kb in [5] (Oryctolagus cuniculus, read-out: pA2 (converted)) is 0.468 µM.

These data come from ChEMBL document CHEMBL1151382, “A pharmacological study of two bisbenzylisoquinoline alkaloids, thalistyline and obamegine” (J Nat Prod, 1982).
